Data: patent US20220133651A1, “TREATMENT OF PITT-HOPKINS SYNDROME” (HEALX LTD, priority 2019, published 2022)
Entries after “also recorded” stand apart in the source; their conditions may differ. Counter-ions that a name gives are not always drawn.

Key:
[1] = cited from earlier work
Tcf4+/− mice [2] = experiment: Fear conditioning (test of learning and memory); format: in vivo, mouse; conditions: chronic treatment of Tcf4+/− mice
Text: The Tcf4+1− mouse model has been developed to mimic PTHS and therefore assess potential treatments. The mice have deficits in hippocampus-dependent learning and memory, spatial working memory, sociability, stereotypy, hyperactivity and daily living paradigms. […] Mice were purchased from The Jackson Laboratory and maintained on a C57BL/6 background. They were raised on a 12:12 light:dark cycle with ad libitum access to food and water. Controls consisted of TCF4+1+. All mice used were heterozygous for the Tcf4 mutation because homozygous mutations result in embryonic/post-partum lethality. There were four treatment groups per compound in the study with 10 male mice used per treatment group (all at 14 weeks of age): Group 1: wild-type littermate mice treated with vehicle (WT+veh); Group 2: Tcf4+/−KO mice treated with vehicle (Tcf4+1−+veh), Group 3: WT+drug; and Group 4: Tcf4+1−+drug. Tcf4+/− mice show reduced freezing in the context of clued fear conditioning test indicating hippocampus-dependent memory and learning deficiency. […] Data were analysed by two-way analysis of variance (ANOVA) followed by post-test comparisons where appropriate using Tukey's Multiple Comparison Test, Data are represented as the mean and standard error of the mean (SEM).

Tcf4+/− mice [3] = experiment: Open field (measure of hyperactivity); format: in vivo, mouse; conditions: chronic treatment of Tcf4+/− mice
Text: The Tcf4+1− mouse model has been developed to mimic PTHS and therefore assess potential treatments. The mice have deficits in hippocampus-dependent learning and memory, spatial working memory, sociability, stereotypy, hyperactivity and daily living paradigms. […] Mice were purchased from The Jackson Laboratory and maintained on a C57BL/6 background. They were raised on a 12:12 light:dark cycle with ad libitum access to food and water. Controls consisted of TCF4+1+. All mice used were heterozygous for the Tcf4 mutation because homozygous mutations result in embryonic/post-partum lethality. There were four treatment groups per compound in the study with 10 male mice used per treatment group (all at 14 weeks of age): Group 1: wild-type littermate mice treated with vehicle (WT+veh); Group 2: Tcf4+/−KO mice treated with vehicle (Tcf4+1−+veh), Group 3: WT+drug; and Group 4: Tcf4+1−+drug. The open-field apparatus was used to test hyperactivity. […] The number of squares entered by the whole body (locomotor activity) was counted. The movement of the mouse around the field was recorded with a video tracking device for 3 min (version NT4.0, Viewpoint). Data were analysed by two-way analysis of variance (ANOVA) followed by post-test comparisons where appropriate using Tukey's Multiple Comparison Test, Data are represented as the mean and standard error of the mean (SEM).

Tcf4+/− mice [4] = experiment: Nesting (test of daily living); format: in vivo, mouse; conditions: chronic treatment of Tcf4+/− mice
Text: The Tcf4+1− mouse model has been developed to mimic PTHS and therefore assess potential treatments. The mice have deficits in hippocampus-dependent learning and memory, spatial working memory, sociability, stereotypy, hyperactivity and daily living paradigms. […] Mice were purchased from The Jackson Laboratory and maintained on a C57BL/6 background. They were raised on a 12:12 light:dark cycle with ad libitum access to food and water. Controls consisted of TCF4+1+. All mice used were heterozygous for the Tcf4 mutation because homozygous mutations result in embryonic/post-partum lethality. There were four treatment groups per compound in the study with 10 male mice used per treatment group (all at 14 weeks of age): Group 1: wild-type littermate mice treated with vehicle (WT+veh); Group 2: Tcf4+/−KO mice treated with vehicle (Tcf4+1−+veh), Group 3: WT+drug; and Group 4: Tcf4+1−+drug. The test was performed in individual cages. Normal bedding covered the floor to a depth of 0.5 cm. […] Mice were placed individually into the nesting cages 1 hr. before the dark phase, and the results were assessed the next morning. Nest building was scored on a 5 point scale. […] Data were analysed by two-way analysis of variance (ANOVA) followed by post-test comparisons where appropriate using Tukey's Multiple Comparison Test, Data are represented as the mean and standard error of the mean (SEM).

Tcf4+/− mice [5] = experiment: Self-grooming (assessment of stereotypy); format: in vivo, mouse; conditions: chronic treatment of Tcf4+/− mice
Text: The Tcf4+1− mouse model has been developed to mimic PTHS and therefore assess potential treatments. The mice have deficits in hippocampus-dependent learning and memory, spatial working memory, sociability, stereotypy, hyperactivity and daily living paradigms. […] Mice were purchased from The Jackson Laboratory and maintained on a C57BL/6 background. They were raised on a 12:12 light:dark cycle with ad libitum access to food and water. Controls consisted of TCF4+1+. All mice used were heterozygous for the Tcf4 mutation because homozygous mutations result in embryonic/post-partum lethality. There were four treatment groups per compound in the study with 10 male mice used per treatment group (all at 14 weeks of age): Group 1: wild-type littermate mice treated with vehicle (WT+veh); Group 2: Tcf4+/−KO mice treated with vehicle (Tcf4+1−+veh), Group 3: WT+drug; and Group 4: Tcf4+1−+drug. […] Usually in a sitting position, the mouse will lick its fur, groom with the forepaws, or scratch with any limb. Often the mouse will mix all of these grooming behaviors. […] Data were analysed by two-way analysis of variance (ANOVA) followed by post-test comparisons where appropriate using Tukey's Multiple Comparison Test, Data are represented as the mean and standard error of the mean (SEM).

Tcf4+/− mice [6] = experiment: Sociability/Partition test (assessment of social anxiety); format: in vivo, mouse; conditions: chronic treatment of Tcf4+/− mice
Text: The Tcf4+1- mouse model has been developed to mimic PTHS and therefore assess potential treatments. The mice have deficits in hippocampus-dependent learning and memory, spatial working memory, sociability, stereotypy, hyperactivity and daily living paradigms. […] Mice were purchased from The Jackson Laboratory and maintained on a C57BL/6 background. They were raised on a 12:12 light:dark cycle with ad libitum access to food and water. Controls consisted of TCF4+1+. All mice used were heterozygous for the Tcf4 mutation because homozygous mutations result in embryonic/post-partum lethality. There were four treatment groups per compound in the study with 10 male mice used per treatment group (all at 14 weeks of age): Group 1: wild-type littermate mice treated with vehicle (WT+veh); Group 2: Tcf4+/-KO mice treated with vehicle (Tcf4+1-+veh), Group 3: WT+drug; and Group 4: Tcf4+1-+drug. In the three-chambered sociability task, a subject mouse was evaluated for its exploration of a novel social stimulus (novel mouse). […] The time spent exploring the novel mice was scored as exploration ratio. Data were analysed by two-way analysis of variance (ANOVA) followed by post-test comparisons where appropriate using Tukey's Multiple Comparison Test, Data are represented as the mean and standard error of the mean (SEM).

Tcf4+/− mice [7] = experiment: Test of Force (hind limb grip strength); format: in vivo, mouse; conditions: chronic treatment of Tcf4+/− mice
Text: The Tcf4+1− mouse model has been developed to mimic PTHS and therefore assess potential treatments. The mice have deficits in hippocampus-dependent learning and memory, spatial working memory, sociability, stereotypy, hyperactivity and daily living paradigms. […] Mice were purchased from The Jackson Laboratory and maintained on a C57BL/6 background. They were raised on a 12:12 light:dark cycle with ad libitum access to food and water. Controls consisted of TCF4+1+. All mice used were heterozygous for the Tcf4 mutation because homozygous mutations result in embryonic/post-partum lethality. There were four treatment groups per compound in the study with 10 male mice used per treatment group (all at 14 weeks of age): Group 1: wild-type littermate mice treated with vehicle (WT+veh); Group 2: Tcf4+/−KO mice treated with vehicle (Tcf4+1−+veh), Group 3: WT+drug; and Group 4: Tcf4+1−+drug. Tcf4+/− mice show a significant deficit in hindlimb strength (not forelimb) when compared with WT mice. Neuromuscular function of the hindlimbs was tested with a grip strength meter (San Diego Instruments). […] The force applied to the grid at the moment the grasp was released was recorded. Data were analysed by two-way analysis of variance (ANOVA) followed by post-test comparisons where appropriate using Tukey's Multiple Comparison Test, Data are represented as the mean and standard error of the mean (SEM).

Tcf4+/− mice [8] = experiment: Dose response experiments in behavioural tests (Study 2); format: in vivo, mouse
Experimental: Dose response experiments were conducted following the protocol described above. Amitriptyline rescued all the behavioral tests at 5 and 10 mg/kg.

| SMILES | solubility in water [1] | fear conditioning (learning and memory) (Tcf4+/− mice [2]) | open field (hyperactivity) (Tcf4+/− mice [3]) | nesting (tests of daily living) (Tcf4+/− mice [4]) | self-grooming (stereotypy) (Tcf4+/− mice [5]) | sociability (social anxiety) (Tcf4+/− mice [6]) | test of force (strength) (Tcf4+/− mice [7]) | all the behavioral tests (dose response) (Tcf4+/− mice [8]; 5 mg/kg) | all the behavioral tests (dose response) (Tcf4+/− mice [8]; 10 mg/kg) |
| --- | --- | --- | --- | --- | --- | --- | --- | --- | --- |
| CN(C)CCC=C1c2ccccc2CCc2ccccc21 [amitriptyline HCL, 3-(10,11-dihydro-5H-dibenzo [ad]cycloheptene-5-ylidene)-N,N-dimethyl-1-propanamine hydrochloride] | freely soluble |  |  |  |  |  |  |  |  |
| CN(C)CCC=C1c2ccccc2CCc2ccccc21 [amitriptyline] |  | significantly improved; also recorded: rescuing | significantly improved; also recorded: rescuing | significantly improved; also recorded: rescuing | significantly improved; also recorded: rescuing | significantly improved; also recorded: rescuing | significantly improved; also recorded: rescuing | rescued | rescued |
